Measured values published in PMC9808420 (Biomedicine & Pharmacotherapy, 2023).
Structures can show the parent of a compound that is named as a salt. Where two headings read alike, the source gives them in different places.

Legend:
RBD domain of S protein = RBD domain of S protein (Severe acute respiratory syndrome coronavirus 2, UniProt P0DTC2); test: biochemical; format: binding, SARS-CoV-2
[1] = tested on: VSV-G pseudotyped lentivirus; test: microbe, parasite or virus in culture; format: cell-based; settings: read-out: EC50 (VSVG)
SARS-CoV-2 pseudovirus = test: organism not typed; format: cell-based; settings: read-out: EC50 (S)
[2] = target: SARS-CoV-2 Spike protein RBD and human ACE2 (Severe acute respiratory syndrome coronavirus 2, UniProt P0DTC2); format: binding, SARS-CoV-2; human

| Compound | Kd (RBD domain of S protein) [µM] | EC50 ([1]; Lentivirus) [µM] | EC50 (SARS-CoV-2 pseudovirus; 48 h) [µM] | Kd (RBD domain of S protein; read-out: KD (equilibrium dissociation constant)) [µM] | Blocking of binding of SARS-CoV-2 RBD to ACE2 in vitro [2] | EC50 [1] [µM] | EC50 (SARS-CoV-2 pseudovirus) [µM] |
| --- | --- | --- | --- | --- | --- | --- | --- |
| CN[C@H](CC(C)C)C(=O)N[C@H]1C(=O)N[C@@H](CC(N)=O)C(=O)N[C@H]2C(=O)N[C@H]3C(=O)N[C@H](C(=O)N[C@H](C(=O)O)c4cc(O)cc(O)c4-c4cc3ccc4O)[C@H](O)c3ccc(c(Cl)c3)Oc3cc2cc(c3O[C@@H]2O[C@H](CO)[C@@H](O)[C@H](O)[C@H]2O[C@H]2C[C@](C)(N)[C@H](O)[C@H](C)O2)Oc2ccc(cc2Cl)[C@H]1O [Vancomycin hydrochloride] | 1600 | > 100 | > 100 | – | – | – | – |
| Teicoplanin | – | – | – | 673 | fail to block binding | > 100 | > 100 |
